What follows are molecules tested against T1, KRAS G12C 1-169, his-tagged protein, GDP-loaded (Homo sapiens, UniProt P01116, G12C) (assay: Biochemical assay: covalent modification of KRAS G12C measured by mass spectrometry (RapidFire/TOF or Q-Exactive)). Conditions: covalent binding to (modification of) KRAS G12C after a ten minute incubation period.
T1 construct: KRAS G12C 1-169, his-tagged protein, GDP-loaded
Type: binding
Method in brief: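 Intact-mass readout (TOF or Q-Exactive, charge-envelope deconvolution) gives percent covalent adduct from modified and unmodified species. Compound at 10, 30 or 100 μM was incubated at room temperature for 10 min to 24 h with 2 μM or 0.5 μM GDP-bound KRAS G12C 1-169 in Hepes/NaCl/MgCl2 buffer, then acid-quenched.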
With C=CC(=O)N1C[C@H](C)N(c2nc(OCCN3CC(F)(F)C3)nc3c(F)c(-c4c(C)ccc5[nH]nc(C6CC6)c45)c(Cl)cc23)C[C@H]1C (atropisomer, axis not shown) [Compound 122, 1-((2R,5S)-4-((R)-6-chloro-7-(3-cyclopropyl-5-methyl-1H-indazol-4-yl)-2-(2-(3,3-difluoroazetidin-1-yl)ethoxy)-8-fluoroquinazolin-4-yl)-2,5-dimethylpiperazin-1-yl)prop-2-en-1-one] the Binding % was “+++ (+++ indicates binding activity greater than 80%)”. For C=CC(=O)N1C[C@H](C)N(c2nc(N3CC(N(C)C)C3)nc3c(F)c(-c4c(C)ccc5ncn(C)c45)c(Cl)cc23)C[C@H]1C [Compound 132, 1-((2R,5S)-4-(6-chloro-7-(1,6-dimethyl-1H-benzo[d]imidazol-7-yl)-2-(3-(dimethylamino)azetidin-1-yl)-8-fluoroquinazolin-4-yl)-2,5-dimethylpiperazin-1-yl)prop-2-en-1-one], the Binding % was “+ (+ indicates binding activity greater than 0% and up to 50%)”. For [2H]C([2H])([2H])N(C1CN(c2nc(N3C[C@@H](C)N(C(=O)C=C)C[C@@H]3C)c3cc(Cl)c(-c4c(C)ccc5cnn(C6CC6)c45)c(F)c3n2)C1)C([2H])([2H])[2H] [Compound 214, 1-((2R,5S)-4-((R)-6-chloro-7-(1-cyclopropyl-6-methyl-1H-indazol-7-yl)-2-(3-(di-perdeuteromethylamino)azetidin-1-yl)-8-fluoroquinazolin-4-yl)-2,5-dimethylpiperazin-1-yl)prop-2-en-1-one], the Binding % was “+++ (+++ indicates binding activity greater than 80%)”. For C=CC(=O)N1C[C@H](C)N(c2nc(N3CC(N(C)C)C3)nc3c(F)c(-c4c(C)ccc5ccn(C)c45)c(Cl)cc23)C[C@H]1C [Compound 203, 1-((2R,5S)-4-((R)-6 chloro-7-(1,6-dimethyl-1H-indol-7-yl)-2-(3-(dimethylamino)azetidin-1-yl)-8-fluoroquinazolin-4-yl)-2,5-dimethylpiperazin-1-yl)prop-2-en-1-one], the Binding % was “+++ (+++ indicates binding activity greater than 80%)”. With C=CC(=O)N1C[C@H](C)N(c2nc(N3CC(N(C)C)C3)nc3c(F)c(-c4c(C)ccc5onc(Cl)c45)c(Cl)cc23)C[C@H]1C [Compound 99, 1-((2R,5S)-4-(6-chloro-7-(3-chloro-5-methylbenzo[d]isoxazol-4-yl)-2-(3-(dimethylamino)azetidin-1-yl)-8-fluoroquinazolin-4-yl)-2,5-dimethylpiperazin-1-yl)prop-2-en-1-one] the Binding % was “+ (+ indicates binding activity greater than 0% and up to 50%)”. With C=CC(=O)N1CCN(c2nc(N3CC(N(C)C)C3)nc3c(F)c(-c4c(C)ccc5[nH]nc(N)c45)c(Cl)cc23)C[C@H]1C [Compound 165, 1-((2R)-4-(7-(3-amino-5-methyl-1H-indazol-4-yl)-6-chloro-2-(3-(dimethylamino)azetidin-1-yl)-8-fluoroquinazolin-4-yl)-2-methylpiperazin-1-yl)prop-2-en-1-one] the Binding % was “+++ (+++ indicates binding activity greater than 80%)”. C=CC(=O)N1C[C@H](C)N(c2nc(OCCCN(C)C)nc3c(F)c(-c4c(C)ccc5cnn(C)c45)c(Cl)cc23)C[C@H]1C (atropisomer, axis not shown) [Compound 154, 1-((2R,5S)-4-((R)-6-chloro-7-(1,6-dimethyl-1H-indazol-7-yl)-2-(3-(dimethylamino)pro-poxy)-8-fluoroquinazolin-4-yl)-2,5-dimethylpiperazin-1-yl)prop-2-en-1-one] was tested, and the Binding % was “+++ (+++ indicates binding activity greater than 80%)”. For C=CC(=O)N1C[C@H](C)N(c2nc(OCCN3CCOCC3)nc3c(F)c(-c4c(C)ccc5[nH]nc(C6CC6)c45)c(Cl)cc23)C[C@H]1C (atropisomer, axis not shown) [Compound 113, 1-((2R,5S)-4-((R)-6-chloro-7-(3-cyclopropyl-5-methyl-1H-indazol-4-yl)-8-fluoro-2-(2-morpholinoethoxy)quina-zolin-4-yl)-2,5-dimethylpiperazin-1-yl)prop-2-en-1-one], the Binding % was “++ (++ indicates binding activity from 50 to 80%)”.
